Test results published in patent US20250161338A1, “Compounds for Anti-aging Intervention” (AGENCY FOR SCIENCE, TECHNOLOGY AND RESEARCH, priority 2022, published 2025).

Columns and labels:
[1] = tested on: prototrophic yeast strain (CEN.PK113-7D); test: Propidium iodide fluorescence-based CLS method in yeast (incl. high-throughput screening); type: cell-based, Saccharomyces cerevisiae;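 on PI intensity: untreated reference is eight DMSO and water control wells per plate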
In short: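 CEN.PK113-7D aged in SD medium at 30 °C with compounds (rapamycin 0–10 nM; sugars 0–8 mM; screen at single concentrations). At each age point cells were stained with 5 μg/mL PI for 15 min; fluorescence was normalized to OD600, background-subtracted, and survival scaled against boiled-cell control.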

IMR90 cells [2] = test: CLS in human cells, propidium iodide fluorescence-based method (IMR90); type: cell-based; conditions: sixth day after seeding
Experimental: (§1) Human embryonic kidney 293 (HEK293) cells (ATCC, Manassas, Virginia, United States of America), lung epithelial (A549) cells (ATCC, Manassas, Virginia, United States of America) and fibroblast (IMR90) cells (ATCC, Manassas, Virginia, United States of America) were cultured in the standard D10 medium, consisting of high-glucose DMEM (HyClone, Cytiva, Marlborough, Massachusetts, USA) supplemented with 10% Fetal Bovine Serum (FBS) (Gibco™, ThermoFisher Scientific, Waltham, Massachusetts, USA) and 1% Penicillin Streptomycin Solution (Gibco™, ThermoFisher Scientific, Waltham, Massachusetts, USA). All cells were cultured in a humidified incubator with 5% CO2 at 37° C.
The stock solution of rapamycin, hemin, 5-fluorouracil, atorvastatin, and methotrexate was prepared in DMSO, followed by serial dilution to form various concentrations used in the experiment. The final DMSO concentration was kept at 0.05% in all experiments. The stock solution of 2,5-anhydro-D-mannitol was prepared in D10 medium. The chemical library used in screening were tested at 1 μM concentrations. Controls used were the same as the solvent applied, DMSO or water.
The assay was performed by preparing the cells with PI (2 μg/mL or 5 μg/mL) in a D10 medium. […] At different age time points, reading was taken with a Synergy MX microplate reader (BioTek, Winooski, Vermont, United States) at 535 nm excitation and 617 nm emission.

HEK293 cells = test: CLS in human cells, PrestoBlue outgrowth assay (HEK293); type: cell-based
Experimental: as §1
(§2) The seeding, washing and trypsinization process was performed similarly to that for the crystal violet assay. 80,000 cells were seeded in a 96-well culture plate with or without compound treatment. At different age time points after seeding, floating dead cells were aspirated with exhausted D10 medium, cells were gently washed with 1×PBS to remove D10 medium residue and treated with 0.2 mL of 0.25% trypsin. […] After one day of growth in a 37° C. incubator with 5% CO2, the cell number was assessed with PrestoBlue™ Cell Viability Reagent (Invitrogen™, Waltham, Massachusetts, USA) according to the manufacturer's protocol. […] After incubation in a 37° C. incubator with 5% CO2 for 3 to 4 hours, reading was taken with a BioTek Synergy MX microplate reader (BioTek, Winooski, Vermont, United States) at excitation and emission wavelengths of 560 nm and 590 nm, respectively.
PrestoBlue (PB) is a resazurin-based reagent used to detect cell viability and traces of cytotoxicity in the medium. It produces results that can be detected both colorimetrically and fluorometrically. […] The resazurin component is reduced to form resorufin by live cells, resulting in a visible change from blue colour to red colour in the reagent, at the same time developing fluorescence, which can be easily detected by a microplate reader. […] The PB assay was easy to perform as the reagent is a commercially available as ready-to-use solution.

IMR90 cells [3] = test: CLS in human cells, PrestoBlue outgrowth assay (IMR90); type: cell-based
Experimental: as §1
as §2, with “treatment.” for “treatment. At different age time points after seeding, floating dead cells were aspirated with exhausted D10 medium, cells were gently washed with 1×PBS to remove D10 medium residue and treated with 0.2 mL of 0.25% trypsin.”, “respectively. […]” for “respectively.”

OC[C@H]1O[C@H](CO)[C@@H](O)[C@@H]1O [2,5-AM, 2,5-anhydro-D-mannitol]
survival of aged cells ([1]; 4 mM and 8 mM, Day 4, without compound approx. 50%): approximately 80% | survival of aged cells ([1]; Day 7, without compound less than 20%): approximately 75% | Yeast CLS increase ([1]; concentration tested 300 μg/mL, Yes/No call of the screen): Yes | PI intensity ([1]; concentration tested 300 μg/mL, solvent water, age point Day 7): 36,240.0 | more live cells compared to the untreated control (IMR90 cells [2]; 2.5 mM): 32.33% | more live cells compared to the untreated control (IMR90 cells [2]; 5 mM): 48.08% | more viable cells compared to the untreated group (HEK293 cells; 2.5 mM, HEK293): 76.31% | more surviving cells relative to the untreated group (HEK293 cells; 5 mM, HEK293): 123.7% | CLS of HEK293 cells by outgrowth method (HEK293 cells; different concentrations, Day 4 normalized to Day 1 (FIG. 19)): Trends of lifespan extension | more surviving cells compared to the untreated group (IMR90 cells [3]; 2.5 mM): 59.05% | more viable cells compared to the untreated group (IMR90 cells [3]; 5 mM): 59.89%
